Experimental findings from patent US9340521B2, “Method for dual inhibition of SGLT1 and SGLT2 using diphenylmethane derivatives” (GREEN CROSS CORPORATION, priority 2013, dated 2016) are described below.

Structures are written as SMILES.

In test [1] the target is Human SGLT2 (hSGLT2) (Homo sapiens (Human), UniProt P31639). The test is described as follows: Inhibitory effects on human SGLT2 activities (14C-AMG uptake, sodium-dependent glucose transport assay). Type of test: cell-based. The conditions noted are these: hSGLT2-expressing CHO cells, 37° C. for 2 h, single determinations. The source says:
Test 1: Cloning and Cell Line Construction for Human SGLT2
Human SGLT2 (hSGLT2) gene was amplified by PCR from cDNA-Human Adult Normal Tissue Kidney (Invitrogen). The hSGLT2 sequence was cloned into pcDNA3.1(+) for mammalian expression and stably transfected into chinese hamster ovary (CHO) cells. SGLT2-expressing clones were selected based on resistance to G418 antibiotic (Geneticin) and activity in the ^14C-α-methyl-D-glucopyranoside (^14C-AMG) uptake assay.
Test 2: Inhibitory Effects on Human SGLT2 Activities
(§1) For sodium-dependent glucose transport assay, cells expressing hSGLT2 were seeded into a 96-well culture plate at a density of 5×10^4 cells/well in RPMI medium 1640 containing 10% fetal bovine serum. The cells were used 1 day after plating. They were incubated in pretreatment buffer (10 mM HEPES, 5 mM Tris, 140 mM choline chloride, 2 mM KCl, 1 mM CaCl2, and 1 mM MgCl2, pH 7.4) at 37° C. for 10 min. They were then incubated in uptake buffer (10 mM HEPES, 5 mM Tris, 140 mM NaCl, 2 mM KCl, 1 mM CaCl2, 1 mM MgCl2, and 1 mM ^14C-nonlabeled AMG pH 7.4) containing ^14C-labeled AMG (8 μM) and the inventive compound or dimethyl sulfoxide (DMSO) vehicle at 37° C. for 2 h. Cells were washed twice with washing buffer (pretreatment buffer containing 10 mM AMG at room temperature) and then the radioactivity was measured using a liquid scintillation counter. IC50 was determined by nonlinear regression analysis using GraphPad PRISM [Katsuno, K. et al. J. Pharmacol. Exp. Ther. 2007, 320, 323-330; Han, S. et al. Diabetes, 2008, 57, 1723-1729].

The target of test [2] is Human SGLT1 (hSGLT1) (Homo sapiens (Human), UniProt P13866). The test is described as follows: Inhibitory effects on human SGLT1 activities (14C-AMG uptake, sodium-dependent glucose transport assay). Type of test: cell-based. Conditions: 37° C. for 2 h, single determinations. Here is the method:
Test 3: Inhibitory Effects on Human SGLT1 Activities
as §1, with “^14C-labeled” for “^14C-labeled AMG”, “inhibitor” for “the inventive compound”, “PRISM.” for “PRISM [Katsuno, K. et al. J. Pharmacol. Exp. Ther. 2007, 320, 323-330; Han, S. et al. Diabetes, 2008, 57, 1723-1729].”

Human SGLT2 (hSGLT2), sequence (P31639 whole entry): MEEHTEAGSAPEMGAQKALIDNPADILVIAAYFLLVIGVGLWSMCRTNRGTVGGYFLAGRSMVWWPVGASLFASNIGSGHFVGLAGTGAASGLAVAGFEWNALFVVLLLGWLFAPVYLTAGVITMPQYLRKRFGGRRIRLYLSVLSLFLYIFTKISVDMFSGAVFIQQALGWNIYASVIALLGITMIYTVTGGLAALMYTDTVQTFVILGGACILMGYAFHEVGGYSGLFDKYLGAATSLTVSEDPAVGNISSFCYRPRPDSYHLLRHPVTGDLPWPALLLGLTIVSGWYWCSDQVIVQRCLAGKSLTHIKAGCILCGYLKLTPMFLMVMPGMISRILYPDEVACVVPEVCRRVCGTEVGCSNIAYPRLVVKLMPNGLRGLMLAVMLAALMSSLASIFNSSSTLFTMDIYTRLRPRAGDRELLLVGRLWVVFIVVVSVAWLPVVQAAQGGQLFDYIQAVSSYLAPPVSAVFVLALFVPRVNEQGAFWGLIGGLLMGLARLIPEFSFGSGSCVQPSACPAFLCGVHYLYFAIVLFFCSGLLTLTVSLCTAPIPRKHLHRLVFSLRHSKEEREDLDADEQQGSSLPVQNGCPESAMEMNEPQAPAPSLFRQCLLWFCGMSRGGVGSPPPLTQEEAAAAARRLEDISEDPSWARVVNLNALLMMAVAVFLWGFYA
Human SGLT1 (hSGLT1), sequence (P13866 whole entry): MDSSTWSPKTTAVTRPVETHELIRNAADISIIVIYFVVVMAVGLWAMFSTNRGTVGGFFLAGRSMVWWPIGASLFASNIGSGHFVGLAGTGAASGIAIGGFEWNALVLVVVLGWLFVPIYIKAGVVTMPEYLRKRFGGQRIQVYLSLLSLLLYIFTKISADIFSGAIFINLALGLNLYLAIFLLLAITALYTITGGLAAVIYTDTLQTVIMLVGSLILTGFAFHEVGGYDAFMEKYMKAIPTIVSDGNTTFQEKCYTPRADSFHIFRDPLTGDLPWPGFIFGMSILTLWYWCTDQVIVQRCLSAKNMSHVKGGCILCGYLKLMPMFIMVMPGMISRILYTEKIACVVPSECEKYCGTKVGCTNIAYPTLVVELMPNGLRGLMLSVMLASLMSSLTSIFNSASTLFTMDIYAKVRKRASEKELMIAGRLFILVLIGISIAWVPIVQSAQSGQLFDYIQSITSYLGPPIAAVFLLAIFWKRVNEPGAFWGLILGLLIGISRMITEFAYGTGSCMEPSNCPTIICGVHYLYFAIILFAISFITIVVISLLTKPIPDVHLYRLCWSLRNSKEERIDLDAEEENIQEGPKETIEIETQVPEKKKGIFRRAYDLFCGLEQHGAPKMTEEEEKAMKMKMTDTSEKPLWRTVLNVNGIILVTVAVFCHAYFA

The IC50 is the concentration that gives 50% inhibition. On to `COc1ccc(Cc2cc([C@@H]3O[C@H](CO)[C@@H](O)[C@H](O)[C@H]3O)c3c(c2Br)CCC3)cc1` [Compound E001, (2S,3R,4R,5S,6R)-2-(7-Bromo-6-(4-methoxybenzyl)-2,3-dihydro-1H-inden-4-yl)-6-(hydroxymethyl)tetrahydro-2H-pyran-3,4,5-triol], for which the 50% inhibitory concentration (IC50) in test [1] came to 0.00044 µM; in test [2], 0.0152 µM.
In the case of `CCOc1ccc(Cc2cc([C@@H]3O[C@H](CO)[C@@H](O)[C@H](O)[C@H]3O)c3c(c2Br)CCC3)cc1` [Compound E002, (2S,3R,4R,5S,6R)-2-(7-Bromo-6-(4-ethoxybenzyl)-2,3-dihydro-1H-inden-4-yl)-6-(hydroxymethyl)tetrahydro-2H-pyran-3,4,5-triol], the IC50 was 0.00075 µM in test [1] and 0.0627 µM in test [2].
Regarding `CCc1ccc(Cc2cc([C@@H]3O[C@H](CO)[C@@H](O)[C@H](O)[C@H]3O)c3c(c2Br)CCC3)cc1` [Compound E003, (2S,3R,4R,5S,6R)-2-(7-Bromo-6-(4-ethylbenzyl)-2,3-dihydro-1H-inden-4-yl)-6-(hydroxymethyl)tetrahydro-2H-pyran-3,4,5-triol], the IC50 is 0.00061 µM in test [1] and 0.0454 µM in test [2].
`COc1ccc(Cc2cc([C@@H]3O[C@H](CO)[C@@H](O)[C@H](O)[C@H]3O)c3c(c2Cl)CCC3)cc1` [Compound E004, (2S,3R,4R,5S,6R)-2-(7-Chloro-6-(4-methoxybenzyl)-2,3-dihydro-1H-inden-4-yl)-6-(hydroxymethyl)tetrahydro-2H-pyran-3,4,5-triol]: the results for the IC50 in test [1] and in test [2] were 0.00068 µM and 0.0372 µM, respectively.
Turning to `COc1ccc(Cc2cc([C@@H]3O[C@H](CO)[C@@H](O)[C@H](O)[C@H]3O)c3c(c2C)CCC3)cc1` [Compound E005, (2R,3S,4R,5R,6S)-2-(Hydroxymethyl)-6-(6-(4-methoxybenzyl)-7-methyl-2,3-dihydro-1H-inden-4-yl)tetrahydro-2H-pyran-3,4,5-triol], the values for the IC50 in test [1] and in test [2] were 0.00079 µM and 0.0268 µM, respectively.
For the molecule `CCOc1ccc(Cc2cc([C@@H]3O[C@H](CO)[C@@H](O)[C@H](O)[C@H]3O)c3c(c2Cl)CCC3)cc1` [Compound E006, (2S,3R,4R,5S,6R)-2-(7-Chloro-6-(4-ethoxybenzyl)-2,3-dihydro-1H-inden-4-yl)-6-(hydroxymethyl)tetrahydro-2H-pyran-3,4,5-triol], the values for the half-inhibitory concentration (IC50) in test [1] and in test [2] were 0.00055 µM and 0.116 µM, respectively.
For the molecule `CCOc1ccc(Cc2cc([C@@H]3O[C@H](CO)[C@@H](O)[C@H](O)[C@H]3O)c3c(c2C)CCC3)cc1` [Compound E007, (2S,3R,4R,5S,6R)-2-(6-(4-Ethoxybenzyl)-7-methyl-2,3-dihydro-1H-inden-4-yl)-6-(hydroxymethyl)tetrahydro-2H-pyran-3,4,5-triol], it took 0.16 µM to reach half-maximal inhibition in test [2] (IC50).
For `CCc1ccc(Cc2cc([C@@H]3O[C@H](CO)[C@@H](O)[C@H](O)[C@H]3O)c3c(c2Cl)CCO3)cc1` [Compound E008, (2S,3R,4R,5S,6R)-2-(4-Chloro-5-(4-ethylbenzyl)-2,3-dihydrobenzofuran-7-yl)-6-(hydroxymethyl)tetrahydro-2H-pyran-3,4,5-triol], the values for the IC50 in test [1] and in test [2] were 0.00088 µM and 0.044 µM, respectively.
Take `CCOc1ccc(Cc2cc([C@@H]3O[C@H](CO)[C@@H](O)[C@H](O)[C@H]3O)c3c(c2Cl)CCCO3)cc1` [Compound E009, (2S,3R,4R,5S,6R)-2-(5-Chloro-6-(4-ethoxybenzyl)chroman-8-yl)-6-(hydroxymethyl)tetrahydro-2H-pyran-3,4,5-triol]: the IC50 in test [1] came to 0.0016 µM; in test [2] it was 0.0772 µM.
As for `COc1ccc(Cc2cc([C@@H]3O[C@H](CO)[C@@H](O)[C@H](O)[C@H]3O)c3c(c2Cl)CCCO3)cc1` [Compound E010, (2S,3R,4R,5S,6R)-2-(5-Chloro-6-(4-methoxybenzyl)chroman-8-yl)-6-(hydroxymethyl)tetrahydro-2H-pyran-3,4,5-triol], the IC50 in test [1] was 0.0016 µM; in test [2], 0.0169 µM.
Regarding `CCc1ccc(Cc2cc([C@@H]3O[C@H](CO)[C@@H](O)[C@H](O)[C@H]3O)c3c(c2Cl)CCCO3)cc1` [Compound E011, (2S,3R,4R,5S,6R)-2-(5-Chloro-6-(4-ethylbenzyl)chroman-8-yl)-6-(hydroxymethyl)tetrahydro-2H-pyran-3,4,5-triol], the figures for the IC50 in test [1] and in test [2] were 0.00085 µM and 0.027 µM, respectively.
As for `COc1ccc(Cc2cc([C@@H]3O[C@H](CO)[C@@H](O)[C@H](O)[C@H]3O)c3c(c2Cl)CCO3)cc1` [Compound E012, (2S,3R,4R,5S,6R)-2-(4-Chloro-5-(4-methoxybenzyl)-2,3-dihydrobenzofuran-7-yl)-6-(hydroxymethyl)tetrahydro-2H-pyran-3,4,5-triol], the IC50 in test [1] is 0.0017 µM; in test [2], 0.0344 µM.
In the case of `CCOc1ccc(Cc2cc([C@@H]3O[C@H](CO)[C@@H](O)[C@H](O)[C@H]3O)c3c(c2Cl)CCO3)cc1` [Compound E013, (2S,3R,4R,5S,6R)-2-(4-Chloro-5-(4-ethoxybenzyl)-2,3-dihydrobenzofuran-7-yl)-6-(hydroxymethyl)tetrahydro-2H-pyran-3,4,5-triol], the IC50 in test [1] turned out to be 0.00083 µM; in test [2], 0.105 µM.
Taken in the same sequence, the figures for `CCc1ccc(Cc2cc([C@@H]3O[C@H](CO)[C@@H](O)[C@H](O)[C@H]3O)c3c(c2Cl)OCCC3)cc1` [Compound E014, (2S,3R,4R,5S,6R)-2-(8-Chloro-7-(4-ethylbenzyl)chroman-5-yl)-6-(hydroxymethyl)tetrahydro-2H-pyran-3,4,5-triol] were 0.00075 µM and 0.0615 µM.
For `COc1ccc(Cc2cc([C@@H]3O[C@H](CO)[C@@H](O)[C@H](O)[C@H]3O)c3c(c2Cl)OCCO3)cc1` [Compound E015, (2S,3R,4R,5S,6R)-2-(8-Chloro-7-(4-methoxybenzyl)-2,3-dihydrobenzo[b][1,4]dioxin-5-yl)-6-(hydroxymethyl)tetrahydro-2H-pyran-3,4,5-triol], half-maximal inhibition in test [2] (IC50) was put at 0.034 µM.
Regarding `CCc1ccc(Cc2cc([C@@H]3O[C@H](CO)[C@@H](O)[C@H](O)[C@H]3O)c3c(c2Cl)OCCO3)cc1` [Compound E016, (2S,3R,4R,5S,6R)-2-(8-Chloro-7-(4-ethylbenzyl)-2,3-dihydrobenzo[b][1,4]dioxin-5-yl)-6-(hydroxymethyl)tetrahydro-2H-pyran-3,4,5-triol], the IC50 in test [1] worked out at 0.00092 µM; in test [2] it was 0.083 µM.
`OC[C@H]1O[C@@H](c2cc(Cc3ccc(C4CC4)cc3)c(Cl)c3c2OCC3)[C@H](O)[C@@H](O)[C@@H]1O` [Compound E017, (2S,3R,4R,5S,6R)-2-(4-Chloro-5-(4-cyclopropylbenzyl)-2,3-dihydrobenzofuran-7-yl)-6-(hydroxymethyl)tetrahydro-2H-pyran-3,4,5-triol]: the IC50 in test [1] turned out to be 0.0011 µM; in test [2] it was 0.0522 µM.
In the case of `OC[C@H]1O[C@@H](c2cc(Cc3ccc(C4CC4)cc3)c(Cl)c3c2OCCC3)[C@H](O)[C@@H](O)[C@@H]1O` [Compound E018, (2S,3R,4R,5S,6R)-2-(5-Chloro-6-(4-cyclopropylbenzyl)chroman-8-yl)-6-(hydroxymethyl)tetrahydro-2H-pyran-3,4,5-triol], the IC50 in test [1] was 0.00085 µM; in test [2], 0.0266 µM.
Take `CCc1ccc(Cc2cc([C@@H]3O[C@H](CO)[C@@H](O)[C@H](O)[C@H]3O)c3c(c2Cl)CC(C)S3)cc1` (stereo partly drawn) [Compound E019, (2S,3R,4R,5S,6R)-2-(4-Chloro-5-(4-ethylbenzyl)-2-methyl-2,3-dihydrobenzo[b]thiophen-7-yl)-6-(hydroxymethyl)tetrahydro-2H-pyran-3,4,5-triol]: the IC50 in test [1] was 0.00098 µM; in test [2] it was 0.111 µM.
Taken in the same sequence, the figures for `CCOc1ccc(Cc2cc([C@@H]3O[C@H](SC)[C@@H](O)[C@H](O)[C@H]3O)c3c(c2Cl)CC(C)O3)cc1` (stereo partly drawn) [Compound E020, (2S,3R,4R,5S,6R)-2-(4-Chloro-5-(4-ethoxybenzyl)-2-methyl-2,3-dihydrobenzofuran-7-yl)-6-(methylthio)tetrahydro-2H-pyran-3,4,5-triol] were 0.00069 µM and 0.115 µM.
